Assay [1] deals with tumor-forming cells in transplanted hESC-derived cell preparations. Nature of the assay: Transplantation of paclitaxel-treated differentiated hESC into 6-OH dopamine-lesioned (Parkinsonian) rats. In kind it is in vivo, rat. How it is done: 6-Hydroxydopamine (8 μg/rat) was stereotaxically injected (in a 4 μL solution) into the right substantia nigra of male Sprague-Dawley rats weighing 250-280 g; coordinates of injection: P=4.8, L=1.7, H=−8.6 from bregma. Fourteen days after 6-hydroxydopamine injection, rats were selected for transplantation if they had >350 rotations per hour after s.c. injection of apomorphine ([…]) (apomorphine being injected after 14 days) and, if 2 days later (after apomorphine injection) they also had >360 (mean 520±38) rotations per hour after i.p. injection of D-amphetamine (4 mg/kg).
Two to five days later (after the D-amphetamine injection), differentiated hESC that were induced according to the above specified protocols, either paclitaxel-treated or control-treated (DMSO), were detached with collagenase and were transplanted, 400,000 cells in 12 μL/animal along two tracts per striatum (coordinates: antero-medial tract, A=1, L=2, H=−7.5 to −4; posterio-lateral tract, A−P=0, L=3.5, H=−7.5 to −4.5). All rats received daily i.p. injections of 10 mg cyclosporine A per kg (Sandimmune; Novartis, Basel, Switzerland).
Rats were euthanized by overdose of pentobarbital and perfused with 4% paraformaldehyde saline. Serial 8 μm coronal frozen sections were prepared. […]

Assay [2] has as its system hES1-derived mixed culture of neurons, neural precursors/progenitors (NPs) and undifferentiated cells. As to the kind of experiment: Paclitaxel treatment of hESC-derived differentiating neural cultures (morphology, immunostaining). The class given is cell-based, human. The protocol:
hES1 colonies grown on HFF feeders in DMEM supplemented with knockout (KO) serum replacement, PenStrep, non-essential amino-acids and glutamine (Invitrogen, USA), were enzymatically detached by collagenase. Intact colonies were transferred to non-adhesive culture plates to form neurospheres in NSC medium (DMEM-F12 medium, N2, B27, PenStrep and Glutamine) supplemented with noggin (Peprotech Asia, Rehovot, Israel) and 20 ng/ml bFGF. Spheres were grown for 3-5 weeks in suspension, collected, triturated and plated on 10 μg laminin/poly-D-lysine-coated coverslips in NSC medium supplemented with FGF8 and SHH for 6-8-days. At this stage, cells were treated with the appropriate concentrations of paclitaxel for 18-24 hours. Paclitaxel was then removed and cells were allowed to recuperate and continue with the differentiation process for additional 6-8 days in NSC medium with BDNF, GDNF, TGFβ3, NT4, cAMP, ascorbic acid.
Alternatively, cells at the end of the differentiation process—the cells are grown as spheres in suspension for 3-5 weeks and 2 more weeks as adherent culture: 1 week FGF8/SHH+1 week factors) are subjected to paclitaxel treatment.
Paclitaxel was added to cells at 2 ranges of concentrations of 0.2-20 nM and 100-500 nM. Cells are incubated at 37° C., in 5% CO2, 5% O2. Incubation times vary between 2 hours and 48 hours.

Each structure is given as a SMILES string.

Take `CC(=O)O[C@H]1C(=O)[C@@]2(C)[C@H]([C@H](OC(=O)c3ccccc3)[C@]3(O)C[C@H](OC(=O)[C@H](O)[C@@H](NC(=O)c4ccccc4)c4ccccc4)C(C)=C1C3(C)C)[C@]1(OC(C)=O)CO[C@@H]1C[C@@H]2O` [paclitaxel]: the “tumor development after transplantation of treated cells” value in assay [1] (cell preparations treated with 20-50 nM paclitaxel, 9 animals, 5-8 weeks post transplantation, all 6 controls with untreated cells developed large tumors) is “none developed tumors”. Moreover, in assay [1] (grafted cells marked by human nuclear antigen in rat striatum, FIGS. 4A-4C), the “tyrosine hydroxylase (dopaminergic marker) expression of grafted paclitaxel-treated cells” value is “express tyrosine hydroxylase”. In assay [2] (after treatment with paclitaxel, FIG. 1C), the “effect on mature cells with typical neuronal morphology” value was “unaffected by the treatment”. Besides, in assay [2] (after treatment with paclitaxel, FIGS. 1A-1C), the “effect on undifferentiated cells and early neural progenitors that form rosette structures” value is reported as “undergo apoptosis”. For the same compound, the “β-III tubulin expressing cells (neuronal marker) in culture” value in assay [2] (mixed culture of neurons and NPs after paclitaxel treatment, FIG. 2C) was “enriched for β-III tubulin expressing cells”. For the same compound, in assay [2] (mixed culture of neurons and NPs after paclitaxel treatment, FIG. 2D), the “nestin-positive cells (NP marker) in culture” value is “reduced number of nestin-positive cells”.
